What was measured:
[1] = tested on: MDA-MB-231 cells; assay: MTS cell viability/proliferation assay; type: cell-based, human; settings: triple negative
Description: Viable and dead cells were detected by the trypan blue exclusion assay, the viability and/or proliferation of cells a MTS assay was used [Akar U, et al. Autophagy 2008: 4:669-79].
Viable and dead cells were detected by the trypan blue exclusion assay, where viable cells (non-stained) with intact membrane are able to exclude the dye, while dead cells take up the coloring blue agent from the media. To quantitatively assess the viability and/or proliferation of cells a MTS assay was used, which incorporates a redox indicator that changes color in response to metabolic activity. To study cell viability in response to CaMK-III siRNA or control siRNA and plasmid encoding CaMK-III or empty plasmid transfection cells were seeded in 96-well plates at a density of 3×10^3 cells per well in 100 μl of medium. Next day the medium was removed and cells were transfected with siRNA at different concentrations in 100 μl of medium plus transfection mix. […] Plates were read at dual wavelengths (570-595 nm) in an Elisa plate reader (Kinetic Microplate Reader, Molecular Devices Corporation, Sunnyvale, Calif.).
(aka proliferation assay, in this case MTS assay was used. MTS, MTT, XTT all similar assays often used as cell viability/toxicity assay). […] Plates were read at 490 nm wavelength in an Elisa plate reader (Kinetic Microplate Reader, Molecular Devices Corporation, Sunnyvale, Calif.).

[2] = tested on: MCF7 cells; assay: MTS cell viability/proliferation assay; type: cell-based, human
Description: (§1) Viable and dead cells were detected by the trypan blue exclusion assay, where viable cells (non-stained) with intact membrane are able to exclude the dye, while dead cells take up the coloring blue agent from the media. To quantitatively assess the viability and/or proliferation of cells a MTS assay was used, which incorporates a redox indicator that changes color in response to metabolic activity. To study cell viability in response to CaMK-III siRNA or control siRNA and plasmid encoding CaMK-III or empty plasmid transfection cells were seeded in 96-well plates at a density of 3×10^3 cells per well in 100 μl of medium. Next day the medium was removed and cells were transfected with siRNA at different concentrations in 100 μl of medium plus transfection mix. Two days after transfection, the medium was removed and replaced by 180 μl of medium plus 20 μl of MTS and the cells were incubated under normal conditions until the color changed. Plates were read at dual wavelengths (570-595 nm) in an Elisa plate reader (Kinetic Microplate Reader, Molecular Devices Corporation, Sunnyvale, Calif.).
(§2) (aka proliferation assay, in this case MTS assay was used. MTS, MTT, XTT all similar assays often used as cell viability/toxicity assay). Cell viability in response to compounds such as 5NT and KD06 was studied with a tetrazolium/formazan based assay (MTS, Celltiter 96 aqueous one solution cell proliferation assay, Promega, WI) [Akar U, Chaves-Reyez A, Barria g Tari A, Sanguino A, Kondo Y, Kondo S, Arun B, Lopez-Berestein G, Ozpolat B: Silencing of Bcl-2 expression by small interfering RNA induces autophagic cell death in MCF-7 breast cancer cells. Autophagy 2008, 4:669-679, Ozpolat 2007 MCR]. Cells were seeded in 96 wells plates at a density of 1.5 to 3.0×10^3 cells per well in 100 μl of medium. Next day the medium was removed and cells were treated with the drug in 100 μl of medium for 72 hours. Plates were read at 490 nm wavelength in an Elisa plate reader (Kinetic Microplate Reader, Molecular Devices Corporation, Sunnyvale, Calif.).

[3] = tested on: MCF7/Dox resistant cells; assay: MTS cell viability/proliferation assay; type: cell-based, human
Description: as §1, §2

[4] = tested on: MCF10A; assay: MTS cell viability assay on normal breast epithelium; type: cell-based, human; settings: at IC50 to IC90 doses in breast cancer cells (MCF7)
Description: as §2

[5] = tested on: breast cancer cells; assay: Cell viability assay, breast cancer cell panel or cell line not stated; type: cell-based, human; settings: incl. MDA-468, BT20, MDa-MB231, SKBR3, MDA-MB435, T47D, ZR75.1
Description: as §2

[6] = tested on: MCF-7 cells; assay: Clonogenic survival assay; type: cell-based, human
Protocol: To study the effect of CaMK-III growth of ER(−) and ER(+) breast cancer cells we performed a clonogenic assay, which is based on the ability of a single cell to grow into a colony (Franken N A, et al. Nat Protoc 2006: 1:2315-9), using MDA-MB-231 and MCF-7 cells, respectively. Cells were transfected with either CaMK-III or control siRNA (50 nM) […] over a period of two weeks.
This assay is an in vitro cell survival assay based on the ability of a single cell to grow into a colony. Briefly, cells (500 cells/well) were transfected with control siRNA or CaMK-III siRNA every week and grown for 2 to 3 weeks. Cells were stained with crystal violet and colonies were counted. Each experiment was repeated twice.
To study the effect of 5-HT1B on the survival and colony formation of breast cancer cells a clonogenic survival assay was performed using various concentrations of […] over a period of two weeks. This assay is based on the ability of a single cell to grow into a colony [Franken N A, et al. Nat Protoc 2006: 1:2315-2319]. […] Cell death and detachment as well as reduced cell number was observed.
This assay is an in vitro cell survival assay based on the ability of a single cell to grow into a colony. […] Cells were stained with crystal violet and colonies cells were counted. […]

[7] = tested on: MCF-7 cells; assay: Apoptosis / cell death in MCF-7 cells (Annexin V, FACS); type: cell-based, human
Protocol: Apoptosis was assessed by an Annexin V assay, monitoring PARP and caspase 9 cleavage by Western blot. To provide a comparative assay of apoptosis by Annexin V labeling, tumor cells (1×10^6) treated with CaMK-III siRNA or control siRNA for 24 to 96 hours were harvested and washed with PBS. Cells were resuspended in binding buffer and stained with Annexin V and propidium iodide (PI) according to the manufacturer's protocol (BD Pharmingen Annexin V kit, San Diego, Calif.). Positive cells were detected and quantified by FACS analysis.

[8] = tested on: eEF-2K; assay: Western blot of MCF-7 cells treated with 5-NT; type: cell-based, human
Protocol: (§3) FIG. 5. 5-NT down-regulates critical pro-tumorigenic processes in ER(+) MCF-7 triple negative breast cancer cells. […] 5-NT also induces PARP cleavage and LC3-II. Methods: MCF7 cells were cultured at 37° C. in DMEM supplemented with 5% FBS in a humid incubator with 5% CO2. Following incubation with or without 5-NT cells were lysed according to standard protocols for western blotting. Blots were quantified as in FIG. 3.
as §3, with “FIG. 9.” for “FIG. 5.”, “MCF-7” for “MCF-7 triple negative”, “and LC3-II formation.” for “and LC3-II.”, “without 5-NT,” for “without 5-NT”, “FIG. 7.” for “FIG. 3.”

[9] = tested on: 5-HT1B or 5-HT1D receptor; assay: Effect on cell proliferation after siRNA knockdown of 5-HT1B or 5-HT1D receptor; type: cell-based

## CCCCCCCCCOc1ccc2[nH]cc(CCN)c2c1 [5-NT, 5-nonylytryptamine]
[1]
  inhibition of proliferation: inhibits proliferation
[2]
  selectivity for tumorigenic MCF-7 compared to non-tumorigenic MCF-10A: much higher selectivity
[2]; ER(+)
  inhibition of proliferation: inhibits proliferation
[3]
  inhibition of proliferation: inhibits proliferation
[4]
  toxicity against normal breast epithelium: not toxic
[5]
  cell survival (O.D.) in a large panel of breast cancer cells: effective against almost all breast cancer cell lines
[6]
  colony formation: inhibits colony formation
[7]
  induction of apoptosis: induced robust apoptosis
[7]; with a low dose of doxorubicin
  cell death in combination with doxorubicin: synergistic cell death
[8]
  time to down-regulation of ERK/cyclin-D, Akt/mTor, IGF1-R, Src/Fak and eEF-2K: ≤ 4 h
[9]
  effect of compound after knockdown of 5-HT1B or 5-HT1D receptor: blunts the effect
